Measured values: the supplement of paper PMC10307832

How the values were obtained:
Test in all cases: relative viability (nuclei count vs DMSO), 5 days (fraction); higher = more cells survive
BEN = system: BEN
In short: (§1)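 Lung cancer cell lines were pin-tool dosed in 1536-well plates on the day after seeding, with either a lone drug or a fixed anchor-drug dose plus five library-drug doses (not always all listed) in √10 steps. Nuclei were counted on 4× images after 5 days. Relative viability is the ratio of treated-well to vehicle-well nuclei counts, with each value a median of duplicate plates.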

EPLC-272H = system: EPLC-272H
In short: as §1

HCC-827 = system: HCC-827
In short: as §1

HOP-62 = system: HOP-62
In short: as §1

LU99A = system: LU99A
In short: as §1

LXF-289 = system: LXF-289
In short: as §1

NCI-H1437 = system: NCI-H1437
In short: as §1

NCI-H1666 = system: NCI-H1666
In short: as §1

NCI-H1915 = system: NCI-H1915
In short: as §1

NCI-H2170 = system: NCI-H2170
In short: as §1

NCI-H2228 = system: NCI-H2228
In short: as §1

NCI-H2342 = system: NCI-H2342
In short: as §1

NCI-H2347 = system: NCI-H2347
In short: as §1

NCI-H23 = system: NCI-H23
In short: as §1

NCI-H322M = system: NCI-H322M
In short: as §1

NCI-H358 = system: NCI-H358
In short: as §1

NCI-H441 = system: NCI-H441
In short: as §1

NCI-H522 = system: NCI-H522
In short: as §1

NCI-H647 = system: NCI-H647
In short: as §1

NCI-H650 = system: NCI-H650
In short: as §1

NCI-H727 = system: NCI-H727
In short: as §1

SK-MES-1 = system: SK-MES-1
In short: as §1

SW 1573 = system: SW 1573
In short: as §1

Structure (SMILES): C=C1C(=O)O[C@@H](CCCCCCCC)[C@@H]1C(=O)O [C-75] + CC(=O)Nc1cccc(-n2c(=O)n(C3CC3)c(=O)c3c(Nc4ccc(I)cc4F)n(C)c(=O)c(C)c32)c1 [Trametinib] (partner 0.02 µM)
- relative viability (BEN; first compound 0.08 µM): 0.993
- relative viability (BEN; first compound 0.253 µM): 1.2
- relative viability (BEN; first compound 0.8 µM): 0.995
- relative viability (BEN; first compound 2.53 µM): 1.14
- relative viability (BEN; first compound 8 µM): 0.989
- relative viability (EPLC-272H; first compound 0.08 µM): 0.311
- relative viability (EPLC-272H; first compound 0.253 µM): 0.341
- relative viability (EPLC-272H; first compound 0.8 µM): 0.27
- relative viability (EPLC-272H; first compound 2.53 µM): 0.299
- relative viability (EPLC-272H; first compound 8 µM): 0.363
- relative viability (HCC-827; first compound 0.253 µM): 0.786
- relative viability (HCC-827; first compound 0.8 µM): 0.558
- relative viability (HCC-827; first compound 8 µM): 0.55
- relative viability (HOP-62; first compound 0.08 µM): 0.354
- relative viability (HOP-62; first compound 0.253 µM): 0.43
- relative viability (HOP-62; first compound 0.8 µM): 0.358
- relative viability (HOP-62; first compound 2.53 µM): 0.321
- relative viability (HOP-62; first compound 8 µM): 0.359
- relative viability (LU99A; first compound 0.08 µM): 0.526
- relative viability (LU99A; first compound 0.253 µM): 0.528
- relative viability (LU99A; first compound 0.8 µM): 0.475
- relative viability (LU99A; first compound 2.53 µM): 0.562
- relative viability (LU99A; first compound 8 µM): 0.527
- relative viability (LXF-289; first compound 0.08 µM): 0.646
- relative viability (LXF-289; first compound 0.253 µM): 0.683
- relative viability (LXF-289; first compound 0.8 µM): 0.657
- relative viability (LXF-289; first compound 2.53 µM): 0.664
- relative viability (LXF-289; first compound 8 µM): 0.672
- relative viability (NCI-H1437; first compound 0.08 µM): 0.514
- relative viability (NCI-H1437; first compound 0.253 µM): 0.699
- relative viability (NCI-H1437; first compound 0.8 µM): 0.454
- relative viability (NCI-H1437; first compound 8 µM): 0.586
- relative viability (NCI-H1666; first compound 0.08 µM): 0.869
- relative viability (NCI-H1666; first compound 0.253 µM): 1.01
- relative viability (NCI-H1666; first compound 0.8 µM): 0.807
- relative viability (NCI-H1666; first compound 8 µM): 0.728
- relative viability (NCI-H1915; first compound 0.08 µM): 0.323
- relative viability (NCI-H1915; first compound 0.253 µM): 0.288
- relative viability (NCI-H1915; first compound 0.8 µM): 0.32
- relative viability (NCI-H1915; first compound 2.53 µM): 0.273
- relative viability (NCI-H1915; first compound 8 µM): 0.359
- relative viability (NCI-H2170; first compound 0.08 µM): 0.962
- relative viability (NCI-H2170; first compound 0.253 µM): 0.924
- relative viability (NCI-H2170; first compound 0.8 µM): 0.941
- relative viability (NCI-H2170; first compound 2.53 µM): 0.849
- relative viability (NCI-H2170; first compound 8 µM): 0.85
- relative viability (NCI-H2228; first compound 0.08 µM): 0.666
- relative viability (NCI-H2228; first compound 0.253 µM): 0.673
- relative viability (NCI-H2228; first compound 0.8 µM): 0.444
- relative viability (NCI-H2228; first compound 2.53 µM): 0.372
- relative viability (NCI-H2228; first compound 8 µM): 0.519
- relative viability (NCI-H2342; first compound 0.08 µM): 0.956
- relative viability (NCI-H2342; first compound 0.253 µM): 0.813
- relative viability (NCI-H2342; first compound 0.8 µM): 0.687
- relative viability (NCI-H2342; first compound 2.53 µM): 0.65
- relative viability (NCI-H2342; first compound 8 µM): 0.917
- relative viability (NCI-H2347; first compound 0.08 µM): 0.296
- relative viability (NCI-H2347; first compound 0.253 µM): 0.193
- relative viability (NCI-H2347; first compound 0.8 µM): 0.317
- relative viability (NCI-H2347; first compound 2.53 µM): 0.26
- relative viability (NCI-H2347; first compound 8 µM): 0.365
- relative viability (NCI-H23; first compound 0.08 µM): 0.361
- relative viability (NCI-H23; first compound 0.253 µM): 0.436
- relative viability (NCI-H23; first compound 0.8 µM): 0.343
- relative viability (NCI-H23; first compound 2.53 µM): 0.291
- relative viability (NCI-H23; first compound 8 µM): 0.321
- relative viability (NCI-H322M; first compound 0.08 µM): 0.513
- relative viability (NCI-H322M; first compound 0.253 µM): 0.673
- relative viability (NCI-H322M; first compound 0.8 µM): 0.547
- relative viability (NCI-H322M; first compound 8 µM): 0.508
- relative viability (NCI-H358; first compound 0.08 µM): 0.158
- relative viability (NCI-H358; first compound 0.253 µM): 0.13
- relative viability (NCI-H358; first compound 0.8 µM): 0.151
- relative viability (NCI-H358; first compound 8 µM): 0.121
- relative viability (NCI-H441; first compound 0.08 µM): 0.569
- relative viability (NCI-H441; first compound 0.253 µM): 0.533
- relative viability (NCI-H441; first compound 0.8 µM): 0.406
- relative viability (NCI-H441; first compound 8 µM): 0.548
- relative viability (NCI-H522; first compound 0.08 µM): 0.784
- relative viability (NCI-H522; first compound 0.253 µM): 0.61
- relative viability (NCI-H522; first compound 0.8 µM): 0.747
- relative viability (NCI-H522; first compound 2.53 µM): 0.845
- relative viability (NCI-H522; first compound 8 µM): 0.604
- relative viability (NCI-H647; first compound 0.08 µM): 0.463
- relative viability (NCI-H647; first compound 0.253 µM): 0.533
- relative viability (NCI-H647; first compound 0.8 µM): 0.361
- relative viability (NCI-H647; first compound 2.53 µM): 0.429
- relative viability (NCI-H647; first compound 8 µM): 0.28
- relative viability (NCI-H650; first compound 0.08 µM): 0.965
- relative viability (NCI-H650; first compound 0.253 µM): 0.961
- relative viability (NCI-H650; first compound 0.8 µM): 0.967
- relative viability (NCI-H650; first compound 2.53 µM): 0.768
- relative viability (NCI-H650; first compound 8 µM): 1
- relative viability (NCI-H727; first compound 0.08 µM): 0.377
- relative viability (NCI-H727; first compound 0.253 µM): 0.378
- relative viability (NCI-H727; first compound 0.8 µM): 0.448
- relative viability (NCI-H727; first compound 2.53 µM): 0.393
- relative viability (NCI-H727; first compound 8 µM): 0.352
- relative viability (SK-MES-1; first compound 0.08 µM): 0.538
- relative viability (SK-MES-1; first compound 0.253 µM): 0.542
- relative viability (SK-MES-1; first compound 0.8 µM): 0.48
- relative viability (SK-MES-1; first compound 2.53 µM): 0.478
- relative viability (SK-MES-1; first compound 8 µM): 0.438
- relative viability (SW 1573; first compound 0.08 µM): 0.586
- relative viability (SW 1573; first compound 0.253 µM): 0.596
- relative viability (SW 1573; first compound 0.8 µM): 0.547
- relative viability (SW 1573; first compound 2.53 µM): 0.553
- relative viability (SW 1573; first compound 8 µM): 0.557
